How the values were obtained:
[1] = Volume of distribution at steady state in AP Wistar rat at 2.1 to 4.0 mg/kg, iv and 8.1 to 8.9 mg/kg, po; assay type: ADME, organism-based; details: in vivo, read-out: Vdss
[2] = Clearance in AP Wistar rat at 2.1 to 4.0 mg/kg, iv and 8.1 to 8.9 mg/kg, po; assay type: ADME, organism-based; details: in vivo
[3] = Half life in AP Wistar rat at 2.1 to 4.0 mg/kg, iv and 8.1 to 8.9 mg/kg, po; assay type: ADME, organism-based; details: in vivo
[4] = Bioavailability in AP Wistar rat at 2.1 to 4.0 mg/kg, iv and 8.1 to 8.9 mg/kg, po; assay type: ADME, organism-based; details: in vivo, at 8.1 to 8.9 mg/kg
in vitro [5] = details: human, Caco-2
in vitro [6] = details: human, Caco-2; remark: listed apart in the source

Row | SMILES | Vd [1] [L/kg] | clearance [2] [mL/min/kg] | half-life [3] [h] | bioavailability [4] [%] | Papp B→A (in vitro [5]) [×10⁻⁶ cm/s] | Papp A→B (in vitro [6]) [×10⁻⁶ cm/s]
1 | NC(=O)CN1C(=O)C(NC(=O)c2cc3cc(Cl)sc3[nH]2)Cc2ccccc21 (stereo not given) | 1.4 | 1.2 | 16 | 35 | – | –
2 | O=C(NC1Cc2ccccc2N(CC(CO)CO)C1=O)c1cc2cc(Cl)sc2[nH]1 (racemic) | 2.2 | 2.5 | 13 | 41 | – | –
3 | O=C(O)CN1C(=O)C(NC(=O)c2cc3sc(Cl)c(Cl)c3[nH]2)Cc2ccccc21 (stereo not given) | – | – | – | – | 11 | 0.3

Other lines, results leading:

Row | Vd [1] [L/kg] | clearance [2] [mL/min/kg] | half-life [3] [h] | bioavailability [4] [%] | Papp B→A (in vitro [5]) [×10⁻⁶ cm/s] | Papp A→B (in vitro [6]) [×10⁻⁶ cm/s] | SMILES
4 | 1.9 | 2.4 | 11 | > 100 | 29 | 29 | O=C(NC1Cc2ccccc2N(C[C@@H](O)CO)C1=O)c1cc2cc(Cl)sc2[nH]1 (mixture of isomers)
5 | 1.4 | 5.1 | 5.4 | 12 | – | – | O=C(CN1C(=O)C(NC(=O)c2cc3cc(Cl)sc3[nH]2)Cc2ccccc21)NCCO (stereo not given)
